{"source": "patent US20240197733A1", "about": "“A GABA RECEPTOR MODULATOR FOR USE IN THE TREATMENT OF PAIN” (SANIONA A/S, priority 2021, published 2024)", "type_in_all_cases": "in vivo, Sprague-Dawley rats", "key": {"[1]": {"tested_on": "electrocutaneous stimulation-induced facial pain rodent model", "assay": "ES-induced facial pain model, cold thermal allodynia (acetone test), acute treatment", "text": "(§1) The electrocutaneous stimulation-induced facial pain rodent model is a reproducible orofacial pain model in which depilated cheek area of rats are repeatedly subjected to electrical stimulation. Repeated electrical stimulation at low intensities produces craniofacial pain that mimics the behavioral characteristics of TN such as development of mechanical and thermal allodynia at cheeks despite no visible edema, swelling or excessive injury and tissue damage.\n(§2) Male wild type, Sprague-Dawley rats (Charles River Laboratories) born in-house at AfaSci Research Laboratory between May 24, 2020 to May 28, 2020. At approximately 3 months of age (approximately 350 g-450 g body weight) the rats were deemed suitable for the electrocutaneous stimulation-induced facial pain model. Prior to the experiment, the rats were maintained in group cages (3 rats per cage) in a controlled environment (temperature: 21.5±4.5° C./relative humidity: 35-55%) under a standard 12 h light/12 h dark lighting cycle (lights on at 06:00).\nThe required quantity of the compounds are weighed and dissolved in 100% DMSO in a volume amounting to 5% of the total volume while placed on a stirrer. The weight of the compounds refers to the free base weights. […]\n(§3) Second baseline measurement was carried out similarly to day 1. […] For each animal, the average of the two baseline nociceptive measurements were calculated within each pain modality (mechanical, heat- and cold pain), and used as baseline (“Baseline” point on figures).\nSimilarly, to day 1- and 2, all rats were subjected to acclimatization to test equipment and decapicone followed by measurements of ES-induced facial mechanical- heat- and cold allodynia (“0” time point on figures). […] Compound 1, vehicle and Carbamazepine was administered perorally in doses of 1, 3, and 10 mg/kg (Compound 1) or 30 mg/kg (carbamazepine) and drug effects on pain thresholds were evaluated 2- and 4 hours after drug administration by assessment of mechanical- (von Frey) and thermal hypersensitivity (heat- and cold stimulation respectively). […]"}, "[2]": {"tested_on": "electrocutaneous stimulation-induced facial pain rodent model", "assay": "ES-induced facial pain model, mechanical allodynia (Von Frey filaments), acute treatment", "conditions": "for effect on mechanical allodynia (mechanical pain threshold, Von Frey) vs vehicle: acute", "text": "as §1, §2\n(§4) The required quantity of the compounds are weighed and dissolved in 100% DMSO in a volume amounting to 5% of the total volume while placed on a stirrer. The weight of the compounds refers to the free base weights. Once the solution becomes clear/transparent, the remaining volume of the vehicle is added (30% HPBCD prepared in MQ water) to final concentrations of 0.1, 0.3, and 1 mg/ml for Compound 1 and 3 mg/ml of Carbamazepine. The solutions are kept on a stirrer before- and during administration of the compounds to the animals.\n(§5) The experimenter assessing the behavioral responses to drug administration is blinded to the drug treatment to the animals. Each treatment group is coded according the scheme below: • A. Vehicle (5% DMSO+30% HPBCD): 10 ml/kg • B. Compound 1: 1 mg/kg • C. Compound 1: 3 mg/kg • D. Compound 1: 10 mg/kg • F. Carbamazepine: 30 mg/kg\nas §3\nSimilarly, to day 1- and 2, all rats were subjected to acclimatization to test equipment and decapicone followed by measurements of ES-induced facial mechanical- heat- and cold allodynia (“0” time point on figures). […] Compound 1, vehicle and Carbamazepine was administered perorally in doses of 1, 3, and 10 mg/kg (Compound 1) or 30 mg/kg (carbamazepine) and drug effects on pain thresholds were evaluated 2- and 4 hours after drug administration by assessment of mechanical- (von Frey) and thermal hypersensitivity (heat- and cold stimulation respectively).\n(§6) Decrease in ES-induced pain threshold was evaluated 22 hours following electrical stimulation of the depilated left cheek area (between the eye and ear ridge, this is a receptive field of trigeminal nerve) of each rat and was manifested as facial withdrawal following application of Von Frey filaments for mechanical allodynia and a heat lamp and acetone test for thermal hyperalgesia and allodynia respectively. Baseline pain behaviors were measured similarly to ES-induced facial pain measurements, except that rats were not subjected to ES stimulation.\nMechanical pain thresholds were assessed by measuring each rat's facial withdrawal threshold (g) in response to von Frey monofilaments (BioSeb). […]"}, "[3]": {"tested_on": "electrocutaneous stimulation-induced facial pain rodent model", "assay": "ES-induced facial pain model, hot thermal hyperalgesia (lamp test, selective C fiber testing), acute treatment", "text": "as §1, §2, §4, §5\nSecond baseline measurement was carried out similarly to day 1. Immediately following the second baseline recording, each rat received 1 hr of electrocutaneous stimulation at cheek (0.4 mA intensity, 10 ms duration, 1 s inter-pulse interval). For each animal, the average of the two baseline nociceptive measurements were calculated within each pain modality (mechanical, heat- and cold pain), and used as baseline (“Baseline” point on figures).\nSimilarly, to day 1- and 2, all rats were subjected to acclimatization to test equipment and decapicone followed by measurements of ES-induced facial mechanical- heat- and cold allodynia (“0” time point on figures). Based on the individual rat's mechanical- and thermal hypersensitivity, 40 rats were selected for drug testing. Compound 1, vehicle and Carbamazepine was administered perorally in doses of 1, 3, and 10 mg/kg (Compound 1) or 30 mg/kg (carbamazepine) and drug effects on pain thresholds were evaluated 2- and 4 hours after drug administration by assessment of mechanical- (von Frey) and thermal hypersensitivity (heat- and cold stimulation respectively).\nas §6\nImmediately following assessment of mechanical pain threshold, thermal (hot- and cold induced) pain was determined. […]"}}}
{"smiles": "COc1ncc(-c2cccc(-n3cnc4cc(C(C)(C)O)cnc43)c2)c(OC)n1", "note": "[Compound 1, 2-(3-(3-(2,4-dimethoxypyrimidin-5-yl)phenyl)-3H-imidazo[4,5-b]pyridin-6-yl)propan-2-ol]", "values": [{"measurement": "effect on cold pain threshold (acetone test, facial withdrawal latency) vs vehicle", "setting": "[1]; 10 mg/kg po, 2 and 4 hours of treatment, p<0.001 and p<0.0001 vs vehicle", "value": "significant enhancement of the cold pain threshold"}, {"measurement": "minimum effective dose, cold allodynia (acetone test)", "setting": "[1]; po, p<0.01 after 2 and 4 hrs of dosing vs vehicle", "value": 3, "unit": "mg/kg"}, {"measurement": "effect on mechanical allodynia (mechanical pain threshold, Von Frey) vs vehicle", "setting": "[2]; 3 mg/kg po, 4 hours post dosing, p<0.05 vs vehicle", "value": "significant analgesic effect"}, {"measurement": "effect on mechanical allodynia (mechanical pain threshold, Von Frey) vs vehicle", "setting": "[2]; 10 mg/kg po, 2 hrs, p<0.05 vs vehicle", "value": "reversed the mechanical allodynia"}, {"measurement": "effect on mechanical allodynia (mechanical pain threshold, Von Frey) vs vehicle", "setting": "[2]; 10 mg/kg po, 4 hours post dosing, p<0.0001 vs vehicle", "value": "significant analgesic effect"}, {"measurement": "analgesic effect on mechanical allodynia compared with carbamazepine 30 mg/kg p.o.", "setting": "[2]; 10 mg/kg po, post 4 hrs of treatment", "value": "comparable analgesic effect with carbamazepine"}, {"measurement": "effect on heat thermal hyperalgesia (facial withdrawal latency) vs vehicle", "setting": "[3]; 3 mg/kg po, post 2 and 4 hrs, p<0.05 and p<0.001 vs vehicle", "value": "significantly reversed the mechanical allodynia"}, {"measurement": "effect on heat thermal hyperalgesia (facial withdrawal latency) vs vehicle", "setting": "[3]; 10 mg/kg po, 2 and 4 hrs post dose, p<0.0001", "value": "significantly produced reversal of hyperalgesia"}, {"measurement": "reversal of hyperalgesia in the thermal heat test (conclusion)", "setting": "[3]; 10 mg/kg po, highest dose tested, similar to Carbamazepine 30 mg/kg", "value": "full reversal of hyperalgesia"}, {"measurement": "effect on heat thermal hyperalgesia (facial withdrawal latency), dose dependence", "setting": "[3]; 1, 3 and 10 mg/kg po", "value": "dose dependently reversed the heat thermal hyperalgesia"}, {"measurement": "minimal effective dose, heat thermal hyperalgesia", "setting": "[3]; po, p<0.01 and p<0.05 vs vehicle 2 and 4 hrs post dose", "value": 1, "unit": "mg/kg"}]}
